In patent publication US12551533B2, “Intranasal neuropeptides for use in stress-related impairments” (New York Medical College, priority 2019, dated 2026):
“Also recorded” adds a separate entry of the source.

Key:
[1] = tested on: Single Prolonged Stress (SPS) model of PTSD; assay: Elevated plus maze (EPM) one week after SPS stressors, early intervention with intranasal peptide; assay type: in vivo, rat
Experimental: (§1) After 7 days, the animals were tested on the elevated plus maze (EPM) for 5 min for various features of anxiety and locomotion and 5 days later for depressive/despair symptoms on the Forced Swim Tet (FST).
Based on the performance on the EPM the anxiety index was calculated for each rat. […] (FIG. 2B)
(§2) After a two week accommodation period rats were exposed to SPS stressors. […] Control unstressed rats were handled briefly and weighed on the same day. They were left undisturbed for a week and then tested for anxiety on Elevated Plus Maze (EPM) together with unstressed control rats. Five days later all the animals were tested for depresssive/dispair behavior by the Forced Swim Test (FST).
Based on the performance on the EPM the anxiety index was calculated for each rat. The anxiety index=1−[(time spent in open arm/total time on the maze)/2+(number of entries to the open arms/total exploration on the maze)/2] and is shown in FIG. 2. […] Each point represents the values for an individual animal.

[2] = tested on: SPS elicited development of depressive symptoms; conditions: intranasal infusion after traumatic stress; cited from earlier work
[3] = tested on: Single Prolonged Stress (SPS) model of PTSD; assay: Forced Swim Test (FST) 12 days after SPS stressors, early intervention with intranasal peptide; assay type: in vivo; conditions: intranasal 150 μg/rat immediately after SPS, vs SPS/V
Experimental: as §1
The immobility time on the FST, which reflects depressive-lie behavior, despair or altered coping style was determined.
as §2

[4] = tested on: Single Prolonged Stress (SPS) model of PTSD; assay: Elevated plus maze (EPM) two weeks after SPS stressors, early intervention with intranasal peptide; assay type: in vivo; conditions: intranasal NPY 200 μg or D-H 150 μg per rat immediately after SPS
Experimental: (§3) FIG. 6 depicts a diagram of the experimental procedure (FIGS. 7-8). […] After two weeks the animals were tested on the elevated plus maze (EPM) for 5 min and 7 days later for social interaction (SI).
(§4) The experimental design was as depicted in FIG. 6. […] After two weeks they were tested on the elevated plus maze (EPM) for 5 min and 7 days later for social interaction (SI).

[5] = tested on: Single Prolonged Stress (SPS) model of PTSD; assay: Social interaction test with juvenile rat, three weeks after SPS stressors; assay type: in vivo; conditions: intranasal NPY 200 μg or D-H 150 μg per rat immediately after SPS; SI 7 days after the EPM
Experimental: as §3, §4

[6] = tested on: Single Prolonged Stress (SPS) model of PTSD; assay: EPM after intranasal treatment given 2 weeks after SPS (reversal of manifested symptoms); assay type: in vivo; conditions: intranasal 300 μg/rat given 2 weeks after SPS; EPM four days later; vs SPS/V
From the text: FIG. 9A. Scheme of the experiment; FIG. 9B. Duration in the closed arms, an indication of anxiety; FIG. 9C. Anxiety index. *p<0.05, ***p<0.001.

[7] = intranasal 150 μg/rat immediately after SPS, one week after SPS
[8] = intranasal 150 μg/rat immediately after SPS, one week after SPS, listed as [D-^26His]NPY

Row | Substance | SPS elicited anxiety (anxiety index on the EPM, FIG. 2B) ([1]; intranasal, at a concentration which prevents SPS elicited depressive symptoms, seven days after SPS) | development of depressive-like symptoms after traumatic stress [2] | distance travelled on the EPM (locomotion) [1, 7] | duration of head dips on the EPM [1, 7] | frequency of head dips on the EPM [1, 7] | duration of head dips on the EPM [1, 8] | frequency of head dips on the EPM [1, 8] | immobility time in the Forced Swim Test ([3]; listed as D-H) | immobility time in the Forced Swim Test ([3]; listed as DH) | entries and duration in the open arms of the EPM [4] | interaction time on the social interaction test [5] | number of approaches on the social interaction test [5] | duration in the closed arms of the EPM [6]
1 | [Leu^31Pro^34]NPY [reference compound] | did not reduce the SPS elicited anxiety; also recorded: ineffective | prevented development of depressive-like symptoms |  |  |  |  |  |  |  |  |  |  | 
2 | [D^26-His]NPY [[D^26His]NPY] |  |  | did not reduce the distance traveled | prevent the SPS triggered reduction; also recorded: more effective than NPY | prevent the SPS triggered reduction; also recorded: more effective than NPY | recovered | recovered | superior to NPY | reduced; also recorded: significantly more effective than NPY | as effective as NPY | prevented | prevented | less time in the closed arms
